Test results: ChEMBL document CHEMBL1133315, “Human beta3-adrenergic receptor agonists containing 1,2,3-triazole-substituted benzenesulfonamides” (Bioorg Med Chem Lett, 2000)

Assays:
[1] = molecular target: Beta-2 adrenergic receptor (Homo sapiens, UniProt P07550); assay: Binding affinity for clone human Beta-2 adrenergic receptor from CHO cell membranes in the presence of I-iodocyanopindolol
[2] = molecular target: T1, Beta-3 adrenergic receptor (Homo sapiens, UniProt P13945); assay: Tested for Beta3 adrenergic receptor agonist activity by its ability to stimulate adenylyl cyclase activation as % of the maximal stimulation with isoproterenol; type: functional
Target sequence in this assay (P13945 whole entry, looked up): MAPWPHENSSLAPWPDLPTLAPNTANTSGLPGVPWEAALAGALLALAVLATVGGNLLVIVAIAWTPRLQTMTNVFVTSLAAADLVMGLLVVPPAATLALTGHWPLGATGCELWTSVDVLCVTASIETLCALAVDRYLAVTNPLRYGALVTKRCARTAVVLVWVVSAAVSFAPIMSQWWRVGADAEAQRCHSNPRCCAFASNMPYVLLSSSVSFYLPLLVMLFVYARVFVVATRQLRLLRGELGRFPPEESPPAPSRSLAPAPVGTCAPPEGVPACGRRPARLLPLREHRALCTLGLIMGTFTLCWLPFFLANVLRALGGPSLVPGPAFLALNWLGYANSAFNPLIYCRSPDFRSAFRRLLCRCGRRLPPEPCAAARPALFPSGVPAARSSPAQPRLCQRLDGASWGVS

[3] = molecular target: T1, Beta-3 adrenergic receptor; assay: Tested in vitro for its ability to stimulate increase in cAMP in CHO cells expressing the cloned human beta-3 adrenergic receptor; type: functional, cell-based
Target sequence in this assay (P13945 whole entry): as the sequence (P13945 whole entry, looked up) above

[4] = molecular target: Beta-1 adrenergic receptor (Homo sapiens, UniProt P08588); assay: Binding affinity for cloned human Beta-1 adrenergic receptor expressed in CHO cells, tested in the presence of I-iodocyanopindolol.; type: cell-based
Sequence of Beta-1 adrenergic receptor (P08588 whole entry): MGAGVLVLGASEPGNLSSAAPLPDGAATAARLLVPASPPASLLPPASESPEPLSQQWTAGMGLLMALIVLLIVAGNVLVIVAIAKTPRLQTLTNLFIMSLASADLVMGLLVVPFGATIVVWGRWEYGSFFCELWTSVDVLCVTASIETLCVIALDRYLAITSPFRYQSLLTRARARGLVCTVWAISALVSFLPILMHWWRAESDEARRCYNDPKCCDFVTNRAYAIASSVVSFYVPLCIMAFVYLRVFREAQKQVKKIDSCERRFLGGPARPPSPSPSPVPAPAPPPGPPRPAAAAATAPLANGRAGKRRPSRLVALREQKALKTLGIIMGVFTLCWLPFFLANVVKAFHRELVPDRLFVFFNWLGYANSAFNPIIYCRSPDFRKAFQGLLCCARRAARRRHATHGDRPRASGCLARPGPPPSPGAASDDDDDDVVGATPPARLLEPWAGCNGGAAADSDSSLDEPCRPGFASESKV

[5] = Oral bioavailability in dog; type: ADME, organism-based, Canis lupus familiaris; details: in vivo
[6] = The half life was determined; type: ADME, organism-based, Canis lupus familiaris; details: dog, in vivo
[7] = The compound was tested for half life in dog; type: ADME, organism-based, Canis lupus familiaris; details: in vivo
Monkey [8] = assay: Effective dose that produced hyperglycerolemia in anesthetized rhesus monkeys; type: functional; details: Cercopithecidae, in Macaca mulatta
Monkey [9] = assay: Compound was tested for separation between lipolytic potency and tachycardia, as heart rate, effect was determined at highest dose of 10 mg/kg in rhesus monkeys; type: functional, Cercopithecidae

Sequence of Beta-2 adrenergic receptor (P07550 whole entry): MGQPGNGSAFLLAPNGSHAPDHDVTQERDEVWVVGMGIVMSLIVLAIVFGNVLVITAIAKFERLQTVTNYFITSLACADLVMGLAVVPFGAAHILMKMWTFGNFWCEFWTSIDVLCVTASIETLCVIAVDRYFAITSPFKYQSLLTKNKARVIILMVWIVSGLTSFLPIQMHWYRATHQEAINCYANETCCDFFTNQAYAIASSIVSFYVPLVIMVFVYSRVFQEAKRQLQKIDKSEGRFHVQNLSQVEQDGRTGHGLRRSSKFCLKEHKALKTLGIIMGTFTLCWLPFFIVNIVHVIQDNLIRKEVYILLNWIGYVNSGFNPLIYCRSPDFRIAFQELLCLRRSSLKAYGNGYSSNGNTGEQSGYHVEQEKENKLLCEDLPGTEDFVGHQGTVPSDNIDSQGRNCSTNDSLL

| Compound | IC50 [1] | Activation [2] | EC50 [3] | IC50 [4] | bioavailability [5] | half-life [6] | bioavailability ([5]; read-out: Activity) | half-life [7] | ED50 (Monkey [8]) | Heart rate (Monkey [9]) |
| --- | --- | --- | --- | --- | --- | --- | --- | --- | --- | --- |
| CCCCCCNC(=O)Nc1ccc(S(=O)(=O)Nc2ccc(CCNC[C@H](O)c3cccnc3)cc2)cc1 |  |  |  |  | < 1% |  |  |  |  |  |
| O=S(=O)(Nc1ccc(CCNC[C@H](O)c2cccnc2)cc1)c1ccc(-n2ncc(COc3ccc(OC(F)(F)F)cc3)n2)cc1 | 620 nM | 75% | 14 nM | 6200 nM |  |  |  |  |  |  |
| O=S(=O)(Nc1ccc(CCNC[C@H](O)c2cccnc2)cc1)c1ccc(-n2ncc(Cc3c(F)cccc3F)n2)cc1 | 5000 nM | 84% | 24 nM | 28000 nM |  |  |  |  |  |  |
| O=S(=O)(Nc1ccc(CCNC[C@H](O)c2cccnc2)cc1)c1ccc(-n2ncc(COc3ccc(F)c(F)c3)n2)cc1 | 690 nM | 63% | 10 nM | 930 nM |  |  |  |  |  |  |
| O=S(=O)(Nc1ccc(CCNC[C@H](O)c2cccnc2)cc1)c1ccc(-n2ncc(COc3ccc(C(F)(F)F)cc3)n2)cc1 | 730 nM | 72% | 11 nM | 920 nM |  |  |  |  |  |  |
| O=S(=O)(Nc1ccc(CCNC[C@H](O)c2cccnc2)cc1)c1ccc(-n2ncc(Cc3ccc(OC(F)(F)F)cc3)n2)cc1 | 860 nM | 91% | 4.1 nM | 2600 nM |  |  |  |  |  |  |
| O=S(=O)(Nc1ccc(CCNC[C@H](O)c2cccnc2)cc1)c1ccc(-n2ncc(Cc3ccc(F)c(F)c3)n2)cc1 | 1000 nM | 86% | 7.2 nM | 2000 nM |  | 4 h | 38% |  |  |  |
| O=S(=O)(Nc1ccc(CCNC[C@H](O)c2cccnc2)cc1)c1ccc(-n2ncc(Cc3c(F)cc(F)cc3F)n2)cc1 | 8800 nM | 83% | 48 nM | 10000 nM |  |  |  |  |  |  |
| O=S(=O)(Nc1ccc(CCNC[C@H](O)c2cccnc2)cc1)c1ccc(-n2ncc(Cc3ccc(C(F)(F)F)cc3)n2)cc1 | 4700 nM | 85% | 3.1 nM | 20000 nM |  |  | 25% | 6 h | 0.36 mg/kg | <5% |
| CCCCCCn1ccn(-c2ccc(S(=O)(=O)Nc3ccc(CCNC[C@H](O)c4cccnc4)cc3)cc2)c1=O [L-764646] |  |  |  |  | 7% |  |  |  |  |  |
| O=S(=O)(Nc1ccc(CCNC[C@H](O)c2cccnc2)cc1)c1ccc(-n2ncc(Cc3cccc(F)c3)n2)cc1 | 380 nM | 87% | 6.4 nM | 3000 nM |  |  |  |  |  |  |

More lines, main results first:

| IC50 [1] | Activation [2] | EC50 [3] | IC50 [4] | bioavailability [5] | half-life [6] | bioavailability ([5]; read-out: Activity) | half-life [7] | Compound | ED50 (Monkey [8]) | Heart rate (Monkey [9]) |
| --- | --- | --- | --- | --- | --- | --- | --- | --- | --- | --- |
| 9300 nM | 91% | 24 nM | 40000 nM |  |  |  |  | O=S(=O)(Nc1ccc(CCNC[C@H](O)c2cccnc2)cc1)c1ccc(-n2ncc(-c3ccc(F)cc3)n2)cc1 |  |  |
|  |  | 6.4 nM |  |  |  |  |  | O=C(c1ccc(F)cc1)c1cnn(-c2ccc(S(=O)(=O)Nc3ccc(CCNC[C@H](O)c4cccnc4)cc3)cc2)n1 |  |  |
| 21000 nM | 90% | 14 nM | 21000 nM | 18% | 15 h |  |  | O=S(=O)(Nc1ccc(CCNC[C@H](O)c2cccnc2)cc1)c1ccc(-n2ncc(-c3ccc(C(F)(F)F)cc3)n2)cc1 |  |  |
| 1300 nM | 82% | 14 nM | 2600 nM |  |  |  |  | O=S(=O)(Nc1ccc(CCNC[C@H](O)c2cccnc2)cc1)c1ccc(-n2ncc(-c3ccc(F)c(F)c3)n2)cc1 |  |  |
| 2500 nM | 80% | 22 nM | 5600 nM |  |  |  |  | COc1ccc(-c2cnn(-c3ccc(S(=O)(=O)Nc4ccc(CCNC[C@H](O)c5cccnc5)cc4)cc3)n2)cc1F |  |  |
| 8800 nM | 89% | 52 nM | 8700 nM |  |  |  |  | O=S(=O)(Nc1ccc(CCNC[C@H](O)c2cccnc2)cc1)c1ccc(-n2ncc(-c3cccc(F)c3)n2)cc1 |  |  |
|  |  | 3.3 nM |  |  |  |  |  | O=S(=O)(Nc1ccc(CCNC[C@H](O)c2cccnc2)cc1)c1ccc(-n2ncc(C(O)c3ccc(F)cc3)n2)cc1 (stereo partly specified) |  |  |
| 780 nM | 75% | 14 nM | 2500 nM |  |  |  |  | O=S(=O)(Nc1ccc(CCNC[C@H](O)c2cccnc2)cc1)c1ccc(-n2ncc(Cc3ccc(F)cc3)n2)cc1 |  |  |
| 1600 nM | 84% | 18 nM | 1300 nM |  |  |  |  | O=S(=O)(Nc1ccc(CCNC[C@H](O)c2cccnc2)cc1)c1ccc(-n2ncc(-c3ccc(OC(F)(F)F)cc3)n2)cc1 |  |  |
